Series [1] is described as follows: In vivo tissue lipid clearance in Balb/c mice. Further details: species or system mouse. To be noted: for half-life / concentration at 28 days / Tmax: Balb/c, mouse; for concentration at 28 days: 28 days post-dose; for ranking of lipid level by tissue / time post-dose by which lipid no longer detected in plasma: single IV bolus 1 mg/kg of the lipid formulation. Here is the method:
Additional studies were conducted to evaluate the in vivo tissue clearance profile of Lipid #7 and Lipid #3 in Balb/c mice. The clearance profiles in mouse tissue and plasma can be found in FIG. 25 (for Lipid #7) and FIG. 26 (for Lipid #3). All animals received a single intravenous bolus treatment of 1 mg/kg of the Lipid #7 formulation at a dosing volume of 10 mL/kg. Plasma, liver, kidney, and spleen were collected from mice (n=3 mice per timepoint) at 0, 2, 15, 30 minutes; 1, 2, 4, 6, 8, 12, 24, 48 hours; and 5, 7, 21, 28 days post-dose. All samples were analyzed for Lipid #7 concentrations.
All animals received a single intravenous bolus treatment of 1 mg/kg of the Lipid #3 formulation at a dosing volume of 10 mL/kg. Plasma was collected from mice (n=3 per timepoint) at 0.25, 1, 2, 4, 6, 12, 24, 120, and 168 hours post-dose. Liver, kidney, and spleen were collected from mice (n=3 per timepoint) at 0.033, 0.25, 1, 2, 4, 6, 12, 24, 120, and 168 hours; 1, 2, 3, 4-weeks post-dose. Heart, brain and lungs were collected from mice (n=3 per timepoint) at 0.25 hours; 1, 2-weeks post-dose. Only samples from 0.25 hrs to 1-week post-dose were analyzed for Lipid #3 tissue concentrations.

Series [2] relates to Spf/ash mice. The experiment in a line: Urinary orotate levels in Spf/ash mice. Type of series: in vivo, mouse. The settings on record: 1 mg/kg and 3 mg/kg IV. Here is the method: Spf/ash mice received an IV injection with either PBS or lipid-formulated OTC-mRNA construct 1799.7 (5MeOU chemistry) at three different doses: 0.3 mg/kg, 1 mg/kg and 3 mg/kg. Urinary orotate levels were determined in untreated wild-type (WT) and both untreated and treated Spf/ash mice. A urinary orotate time course was performed in Spf/ash and WT mice, and urinary orotate levels were measured at each timepoint. The results can be seen in FIG. 12. Urinary orotate was normalized to creatinine, which is represented in the graph on the y-axis throughout the time course and served as a proof-of-concept of functional restoration of OTC activity post-injection.
Spf/ash mice received an IV injection with either PBS or lipid-formulated (as described in Example 1) OTC-mRNA at 1 mg/kg and 3 mg/kg. WT mice were included as an internal control. Urinary orotate levels were measured at 0, 1, 3, 7 and 14 days, and levels were normalized to creatinine (FIG. 16).

Series [3] concerns Spf/ash mice. The experiment in a line: Western Blot of mitochondrial and cytosolic liver fractions of Spf/ash mice. It is filed as in vivo, mouse. The protocol: Spf/ash mice received an IV injection with either PBS or lipid-formulated (as described in Example 1) OTC-mRNAs at 1 mg/kg and 3 mg/kg. WT mice were used as internal controls. Livers were harvested from the mice and sample fractionation was performed on the liver samples, separating the cytosolic and mitochondrial fractions. OTC levels were measured by Western Blot (WB) using human specific (hOTC) and crossreactive (crOTC) antibodies (FIG. 14). […] (CoxIV) was used as a mitochondrial control. OTC protein expression levels were measured by near-infrared fluorescent imaging systems and normalized to total protein.
Spf/ash mice received an IV injection with either PBS or lipid-formulated OTC-mRNAs at 3 mg/kg. WT mice were used as internal controls. Sample fractionation was performed on liver samples harvested from the mice, separating the cytosolic and mitochondrial fractions. OTC levels were measured by Western Blot using a human specific antibody. OTC protein expression levels were measured by near-infrared fluorescent imaging systems and both fractions, normalized to total protein, were plotted (FIG. 15). […] The 2260 compound includes a modified mitochondrial signaling peptide sequence provided herein.
In general terms: A western blot detects proteins with antibodies after separation by electrophoresis.

The mark [4] stands for this setting: kidney, 1 mg/kg IV, read-out: half-life, kidney (converted).
Where [5] appears, read: liver, 1 mg/kg IV, read-out: half-life, liver (converted).
The mark [6] stands for this setting: plasma, 1 mg/kg IV, read-out: half-life, plasma (converted).

Read-outs that look alike come from different tables or passages of the source. A value given as a limit tells only on which side of the number the result lay.

As a reminder, the half-life is the time in which the quantity being followed falls by half. With `CCCCCCCC(CCCCCCC)OC(=O)CCCN(CCCC(=O)OC(CCCCCCC)CCCCCCC)C(=O)SCCCN(C)C` [Lipid #7], the half-life in series [1] (setting [4]) is 234 h; in series [1] (setting [5]) it was 84 h; in series [1] (setting [6]), 57 h. For the same molecule, the concentration at 28 days in series [1] (kidney, 1 mg/kg IV, read-out: lipid concentration in the kidney) was found to be 2.34 ng/mL; in series [1] (liver, 1 mg/kg IV, read-out: lipid concentration in the liver) it was 17.2 ng/mL; in series [1] (spleen, 1 mg/kg IV, read-out: lipid concentration in the spleen), 18.4 ng/mL. Further, in series [1], the “ranking of lipid level by tissue” value was “liver>spleen>plasma>kidney”. Also, the “time post-dose by which lipid no longer detected in plasma” value in series [1] is given as at most 14 days.

One may read the Tmax as the time at which the peak concentration occurs. Turning to `CCCCCC/C=C\COC(=O)CCCCCN(CCCCCC(=O)OC(CCCCCCC)CCCCCCC)C(=O)SCCN(C)C` [Lipid #3], the tissue clearance assessment result in series [1] (1 mg/kg IV) was “rapid tissue clearance”. Also, in series [1] (1 mg/kg IV, either time point post-dose), the “detection in brain tissue” value is listed as “not detected in brain tissue”. In series [1] (1 mg/kg IV, close to LLOQ), the “time post-dose through which concentrations persisted, all other tissues” value is 120 h. For the same molecule, the “time post-dose through which concentrations persisted, liver” value in series [1] (1 mg/kg IV, close to LLOQ) is 168 h. In addition, the Tmax in series [1] (kidney, 1 mg/kg IV, read-out: Tmax, kidney) lay within 0.033 to 1 h; in series [1] (liver, 1 mg/kg IV, read-out: Tmax, liver), 0.033 to 1 h; in series [1] (spleen, 1 mg/kg IV, read-out: Tmax, spleen) it was 1 to 2 h. Besides, the half-life in series [1] (setting [4]) was 19 h; in series [1] (setting [5]), 22 h; in series [1] (setting [6]) it was 0.45 h; in series [1] (spleen, 1 mg/kg IV, read-out: half-life, spleen (converted)), 24 h. For the same molecule, the “ranking of lipid level by tissue” value in series [1] is “liver>plasma>spleen>kidney>lung>heart>brain”. Besides, the “time post-dose by which lipid no longer detected in plasma” value in series [1] is at most 0.17 days.

B1: Construct 2260: mRNA construct, SEQ ID NO: 251, encodes modified human OTC protein of SEQ ID NO: 4 (nucleic acid)
sense: AGGAUUAUUACAUCAAAACAAAAAGCCGCCACCAUGCUGGUAUUCAACCUGCGCAUCCUGCUGAACAACGCCGCCUUCCGCAACGGCCACAACUUCAUGGUGCGCAACUUCCGCUGCGGCCAGCCCCUGCAGAACCGGGUGCAGCUGAAGGGCCGCGACCUGCUGACCCUGAAGAACUUCACCGGCGAGGAGAUCCGGUACAUGCUGUGGCUGAGCGCCGACCUGAAGUUCCGCAUCAAGCAGAAGGGCGAGUACCUGCCCCUGCUGCAGGGCAAGAGCCUGGGCAUGAUCUUCGAGAAGCGCAGCACCCGCACCCGCCUGAGCACCGAGACAGGCUUCGCCCUGCUGGGCGGCCACCCCUGCUUCCUGACCACCCAGGACAUCCACCUGGGCGUGAACGAGAGCCUGACCGACACCGCCCGCGUGCUGAGCAGCAUGGCCGACGCCGUGCUGGCCCGCGUGUACAAGCAGAGCGACCUGGACACCCUGGCCAAGGAGGCCAGCAUCCCCAUCAUCAACGGCCUGAGCGACCUGUACCACCCCAUCCAGAUCCUGGCCGACUACCUGACCCUGCAGGAGCACUACAGCAGCCUGAAGGGCCUGACCCUGAGCUGGAUCGGCGACGGCAACAACAUCCUGCACAGCAUCAUGAUGAGCGCCGCCAAGUUCGGCAUGCACCUGCAGGCCGCCACCCCCAAGGGCUACGAGCCCGACGCCAGCGUGACCAAGCUGGCCGAGCAGUACGCCAAGGAGAACGGCACCAAGCUGCUGCUGACCAACGACCCCCUGGAGGCCGCCCACGGCGGCAACGUGCUGAUCACCGACACCUGGAUCAGCAUGGGCCAGGAGGAGGAGAAGAAGAAGCGCCUGCAGGCCUUCCAGGGCUACCAGGUGACCAUGAAGACCGCCAAGGUGGCCGCCAGCGACUGGACCUUCCUGCACUGCCUGCCCCGCAAGCCCGAGGAGGUGGACGACGAGGUGUUCUACAGCCCCCGCAGCCUGGUGUUCCCCGAGGCCGAGAACCGCAAGUGGACCAUCAUGGCCGUGAUGGUGAGCCUGCUGACCGACUACAGCCCCCAGCUGCAGAAGCCCAAGUUCUGAGGUCUCUAGUAAUGAGCUGGAGCCUCGGUAGCCGUUCCUCCUGCCCGCUGGGCCUCCCAACGGGCCCUCCUCCCCUCCUUGCACCGGCCCUUCCUGGUCUUUGAAUAAAGUCUGAGUGGGCAGCAUCUAG
Consider B1, for which the “dose dependence of urinary orotate reduction” value with Spf/ash mice [2] is “dose-dependent manner”. For the same molecule, in the series on Spf/ash mice [2] (measured at 0, 1, 3, 7 and 14 days), the “duration of reduced urinary orotate levels” value was “up to 14 days”. Besides, the “targeting of expressed OTC to the mitochondria” value in the series on Spf/ash mice [3] (1 mg/kg and 3 mg/kg IV, liver fractions) is reported as “can efficiently target the mitochondria”. In addition, the “human OTC protein level in mitochondrial fraction” value in the series with Spf/ash mice [3] (3 mg/kg IV, liver, normalized to total protein) is recorded as “delivers more human OTC than 2016 in the mitochondria”.

These data come from patent US12351834B2, “Compositions and methods for the treatment of ornithine transcarbamylase deficiency” (Arcturus Therapeutics, Inc., priority 2020, dated 2025).
